Reference: the supplement of paper PMC10307832

How the values were obtained:
Test in all cases: relative viability (nuclei count vs DMSO), 5 days (fraction); higher = more cells survive
R406 + Tozasertib = compound: COc1cc(Nc2ncc(F)c(Nc3ccc4c(n3)NC(=O)C(C)(C)O4)n2)cc(OC)c1OC [R406] + Cc1cc(Nc2cc(N3CCN(C)CC3)nc(Sc3ccc(NC(=O)C4CC4)cc3)n2)n[nH]1 [Tozasertib] (partner 0.1 µM)
Method in brief: (§1)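 Nuclei were stained with Hoechst during a one-step fixation (final 0.05% Triton X-100, 1% formaldehyde, 1 ug/ml Hoechst) carried out 5 days after dosing, then counted on 4× images. The cells, lung cancer lines in 1536-well plates, had been dosed by pin tool the day after seeding with one drug alone or a fixed anchor-drug dose plus five library-drug doses (not always all listed) in √10 steps. Relative viability is the nuclei count in treated wells divided by that in vehicle wells, and each value is the median of duplicate plates.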

Daporinad + OSI-027 = compound: O=C(/C=C/c1cccnc1)NCCCCC1CCN(C(=O)c2ccccc2)CC1 [Daporinad] + COc1cccc2cc(-c3nc([C@H]4CC[C@H](C(=O)O)CC4)n4ncnc(N)c34)[nH]c12 [OSI-027] (partner 0.5 µM)
Method in brief: as §1

Daporinad + Dasatinib = compound: O=C(/C=C/c1cccnc1)NCCCCC1CCN(C(=O)c2ccccc2)CC1 [Daporinad] + Cc1nc(Nc2ncc(C(=O)Nc3c(C)cccc3Cl)s2)cc(N2CCN(CCO)CC2)n1 [Dasatinib] (partner 0.075 µM)
Method in brief: as §1

Daporinad + Pemetrexed = compound: O=C(/C=C/c1cccnc1)NCCCCC1CCN(C(=O)c2ccccc2)CC1 [Daporinad] + Nc1nc2[nH]cc(CCc3ccc(C(=O)N[C@@H](CCC(=O)O)C(=O)O)cc3)c2c(=O)[nH]1 [Pemetrexed] (partner 0.2 µM)
Method in brief: as §1

UMC-11
relative viability (R406 + Tozasertib; first compound 0.08 µM): 0.203
relative viability (R406 + Tozasertib; first compound 0.253 µM): 0.207
relative viability (R406 + Tozasertib; first compound 0.8 µM): 0.205
relative viability (R406 + Tozasertib; first compound 2.53 µM): 0.25
relative viability (R406 + Tozasertib; first compound 8 µM): 0.185
relative viability (Daporinad + OSI-027; first compound 0.0005 µM): 0.469
relative viability (Daporinad + OSI-027; first compound 0.001581 µM): 0.55
relative viability (Daporinad + OSI-027; first compound 0.005 µM): 0.567
relative viability (Daporinad + OSI-027; first compound 0.01581 µM): 0.689
relative viability (Daporinad + Dasatinib; first compound 0.0005 µM): 0.486
relative viability (Daporinad + Dasatinib; first compound 0.001581 µM): 0.507
relative viability (Daporinad + Dasatinib; first compound 0.005 µM): 0.394
relative viability (Daporinad + Dasatinib; first compound 0.01581 µM): 0.505
relative viability (Daporinad + Pemetrexed; first compound 0.0005 µM): 0.746
relative viability (Daporinad + Pemetrexed; first compound 0.001581 µM): 0.83
relative viability (Daporinad + Pemetrexed; first compound 0.005 µM): 0.847
relative viability (Daporinad + Pemetrexed; first compound 0.01581 µM): 0.773
